Assay [1] has as its system rat permanent middle cerebral artery occlusion (MCAO) model. As to the kind of experiment: Rat permanent middle cerebral artery occlusion (MCAO) stroke model. Type of assay: in vivo. The protocol:
A rat permanent middle cerebral artery occlusion (MCAO) model was used to determine stroke treatment efficacy. MCAO is a representative model of acute CNS disorders. See, for example, M. D. Ginsberg et al., “Rodent Models of Cerebral Ischemia” (1989) Stroke, 20:1627-1642. In this stroke model, the middle cerebral artery was permanently occluded via cauterization to produce a focal stroke. N-isopropyl-α-(2-sulfofuran-5-yl)nitrone, sodium salt (prepared in Example 1 above) was then administered as a 10 mg/kg i.v. bolus dose three hours post MCAO through a catheter surgically implanted in the jugular vein. Two days post MCAO, the rats were sacrificed and the extent of brain damage assessed using tetrazolium staining (TTC staining) followed by computer image analysis to quantitate infarct volumes, i.e., the regions of dead tissue. The mean infarct volume for rats treated with the test compound was 24.7 mm^3 whereas the mean infarct volume for rats not treated with the test compound was 36.0 mm^3. […] Thus, N-isopropyl-α-(2-sulfofuran-5-yl)nitrone, sodium salt reduced the mean infarct volume of a stroke by 32% when administered three hours post stroke compared to controls.

Assay [2] concerns primary neuronal/astrocyte cultures. Briefly: Protection against Aβ(1-40)-induced neuronal cell loss. The class given is cell-based, Sprague Dawley rat. The conditions noted are these: similar manner using Aβ(1-40) instead of Aβ(25-35). As for the experimental part: Patients with Alzheimer's disease are known to suffer a progressive loss of neuronal cells. See, for example, P. J. Whitehause et al., (1982) Science, 215:1237-1239. […] Sprague Dawley rat hippocampus of 18-day-gestation embryos was excised and then dissociated by trituration to prepare primary neuronal/astrocyte cultures. Cells (3×10^5) were plated on 35 mm poly-D-lysine-coated plates containing Eagle's minimum essential medium supplemented with 10% fetal bovine serum. After 3-5 hours, the original medium was removed and replaced with 1 mL of fresh medium. Cultures were maintained at 37° C. in a 5% CO2/95% air humidified incubator.
To the cells (7 DIV) was added 30 μM of Aβ(25-35) dissolved in dH2O (stored at −20° C.) and 100 μM of the test compound (i.e., a compound of Example 1, 3, 4, 5, 6, 7, 8, 12 or 13 above) in 1% methylcellulose. Controls were also conducted without the test compound. The percentage of morphologically viable neurons was determined counting the number of viable neurons after 96 hours treatment compared to the number of neurons before treatment in the same premarked culture regions (three regions/culture, n=6).
In experiments conducted in a similar manner using Aβ(1-40) instead of Aβ(25-35), the compound prepared in Example 1 above reduced Aβ(1-40)-induced neuronal cell loss by 46% compared to the controls.

Assay [3] deals with female Lewis rats. Briefly: MBP-induced experimental allergic encephalomyelitis (EAE), behavioral score. Type of assay: in vivo, rat. Conditions: 100 mg/kg po once a day from days 4 to 18. As for the experimental part: Experimental allergic encephalomyelitis (EAE) induced by injection of myelin basic protein (MBP) or MBP peptide fragments is reported to be a useful model for MS. See, for example, D. E. McFarlin et al., “Recurrent Experimental Allergic Encephalomyelitis in the Lewis Rat,” The Journal of Immunology, 113(2): 712-715 (1974).
Acclimated female Lewis rats, (Harlan; 200-250 g) were used in this experiment since this strain of rat is genetically highly susceptible to EAE. In the experiment, 100 mg/kg of N-isopropyl-α-(2-sulfofuran-5-yl)nitrone sodium salt (prepared in Example 1 above) or a vehicle alone (control) was administered po once a day from days 4 to 18. On day 1, the rats received an injection of 100 μg of MBP peptide, from guinea pig brain, plus 500 μg of H37RA Mycobacterium in 0.10 ml complete Freund's adjuvant divided equally between the two hind foot-pads.
The rats were evaluated on a 0-6 scale every day after day 7 until day 18 (effects usually begin day 10 and peak day 15). See E. Heber-Katz, “The Ups and Downs of EAE,” International Reviews Immunology, 9: 277-285 (1992). […] Results are expressed as a behavioral score ranging from 0 to 6.

Assay [4] is described as follows: Free radical trapping, DCF oxidation, ferrous iron system. Type of assay: biochemical. Conditions: 100 μM test compound, 100 μM FeSO4, 50 μM DCF in MEM, 37° C., 2 hrs. As for the experimental part: Dichlorofluorescein (DCF) is a compound that fluoresces when oxidized by reactive oxygen species (ROS), such as hydroxyl, peroxyl, or alkoxyl free radicals. Test compounds were evaluated for their ability to scavenge radicals by determining their capacity to prevent the DCF oxidation in a radical generating environment. Two radical generating systems were used: (i) ferrous iron and (ii) tert-butyl hydroperoxide. When ferrous iron is placed in normoxic solution, it autooxidizes to produce ROS in the form of hydroxyl radicals, superoxide anion free radicals, and hydrogen peroxide. Similarly, when tert-butyl hydroperoxide is placed in non-chelated media, trace metals catalyze its oxidation to yield alkoxy, peroxyl, and alkyl free radicals.
In this assay, either 100 μM FeSO4 or 25 μM tert-butyl hydroperoxide were mixed with 50 μM DCF and 100 μM of the test compound in MEM and the mixture was incubated at 37° C. for 2 hrs. The fluorescence wavelengths measured were 485 nm for excitation and 530 nm for emission. In these tests, N-isopropyl-α-(2-sulfofuran-5-yl)nitrone sodium salt (prepared in Example 1 above) reduced fluorescence by 20% in the Fe^+2 assay and by 13% in the tert-butyl hydroperoxide assay. In comparison, a known free radical trap, N-tert-butyl-α-phenylnitrone (PBN) reduced fluorescence by 48% in the Fe^+2 assay and by 9% in the tert-butyl hydroperoxide assay.

Molecules are shown by their SMILES.

Take `CC(C)[N+]([O-])=Cc1ccc(S(=O)(=O)O)o1` [Example 1, N-Isopropyl-α-(2-sulfofuran-5-yl)nitrone]: the mean infarct volume in assay [1] (10 mg/kg i.v. bolus three hours post MCAO, two days post MCAO, TTC staining) is 24.7 mm^3. Besides, the “reduction of mean infarct volume compared to controls” value in assay [1] (10 mg/kg i.v. bolus three hours post stroke) came to 32%. The “reduction of Aβ(1-40)-induced neuronal cell loss compared to the controls” value in assay [2] is reported as 46%. For the same compound, the “effect of MBP on behavioral score (0-6 scale)” value in assay [3] was “completely counteracted the effect of MBP”. In assay [4], the “reduced fluorescence in the Fe^+2 assay” value is reported as 20%.

For the origin of these results see patent US6376540B1, “Furan nitrone compounds” (Centaur Pharmaceuticals, Inc., priority 1996, dated 2002).
